Measured values taken from ChEMBL document CHEMBL4507268 (2021).

Tests used:
[1] = biological target: Casein kinase I isoform gamma-2 (Homo sapiens) (UniProt P78368); details: Compound concentration 1000.0 nM
[2] = biological target: Bone morphogenetic protein receptor type-1B (Homo sapiens) (UniProt O00238); details: Compound concentration 1000.0 nM
[3] = biological target: Mitogen-activated protein kinase kinase kinase 1 (Homo sapiens) (UniProt Q13233); details: Compound concentration 1000.0 nM
[4] = biological target: Dual specificity mitogen-activated protein kinase kinase 1 (Homo sapiens) (UniProt Q02750); details: Compound concentration 1000.0 nM
[5] = biological target: Tyrosine-protein kinase JAK2 (Homo sapiens) (UniProt O60674); details: Compound concentration 1000.0 nM
[6] = biological target: T1, Serine/threonine-protein kinase Chk1 (Homo sapiens) (UniProt O14757); details: Compound concentration 1000.0 nM
T1 sequence (whole entry): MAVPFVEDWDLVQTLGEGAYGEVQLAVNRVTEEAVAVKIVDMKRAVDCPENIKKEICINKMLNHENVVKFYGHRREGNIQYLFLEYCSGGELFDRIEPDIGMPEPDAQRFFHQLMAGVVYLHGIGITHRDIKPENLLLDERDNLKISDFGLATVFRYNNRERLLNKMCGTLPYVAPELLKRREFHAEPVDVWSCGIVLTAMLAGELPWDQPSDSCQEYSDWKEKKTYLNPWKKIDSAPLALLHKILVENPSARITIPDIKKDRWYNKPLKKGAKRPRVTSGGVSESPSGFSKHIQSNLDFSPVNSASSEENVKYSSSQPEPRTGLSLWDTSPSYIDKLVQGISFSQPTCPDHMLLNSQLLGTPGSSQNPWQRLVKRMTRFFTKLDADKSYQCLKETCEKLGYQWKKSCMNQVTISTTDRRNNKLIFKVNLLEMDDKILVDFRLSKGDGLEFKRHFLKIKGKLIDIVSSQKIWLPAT

[7] = biological target: GABA-A receptor; anion channel (Rattus norvegicus) (UniProt O09028+P15431+P18506+P18508+P19969+P20236+P23574+P23576+P28471+P28473+P30191+P62813+P63079+P63138+Q91ZM7+Q9ES14); details: Compound concentration 10.0 uM
[8] = biological target: T2, Dual specificity protein kinase TTK (Homo sapiens) (UniProt P33981); details: Compound concentration 1000.0 nM
T2 sequence (whole entry): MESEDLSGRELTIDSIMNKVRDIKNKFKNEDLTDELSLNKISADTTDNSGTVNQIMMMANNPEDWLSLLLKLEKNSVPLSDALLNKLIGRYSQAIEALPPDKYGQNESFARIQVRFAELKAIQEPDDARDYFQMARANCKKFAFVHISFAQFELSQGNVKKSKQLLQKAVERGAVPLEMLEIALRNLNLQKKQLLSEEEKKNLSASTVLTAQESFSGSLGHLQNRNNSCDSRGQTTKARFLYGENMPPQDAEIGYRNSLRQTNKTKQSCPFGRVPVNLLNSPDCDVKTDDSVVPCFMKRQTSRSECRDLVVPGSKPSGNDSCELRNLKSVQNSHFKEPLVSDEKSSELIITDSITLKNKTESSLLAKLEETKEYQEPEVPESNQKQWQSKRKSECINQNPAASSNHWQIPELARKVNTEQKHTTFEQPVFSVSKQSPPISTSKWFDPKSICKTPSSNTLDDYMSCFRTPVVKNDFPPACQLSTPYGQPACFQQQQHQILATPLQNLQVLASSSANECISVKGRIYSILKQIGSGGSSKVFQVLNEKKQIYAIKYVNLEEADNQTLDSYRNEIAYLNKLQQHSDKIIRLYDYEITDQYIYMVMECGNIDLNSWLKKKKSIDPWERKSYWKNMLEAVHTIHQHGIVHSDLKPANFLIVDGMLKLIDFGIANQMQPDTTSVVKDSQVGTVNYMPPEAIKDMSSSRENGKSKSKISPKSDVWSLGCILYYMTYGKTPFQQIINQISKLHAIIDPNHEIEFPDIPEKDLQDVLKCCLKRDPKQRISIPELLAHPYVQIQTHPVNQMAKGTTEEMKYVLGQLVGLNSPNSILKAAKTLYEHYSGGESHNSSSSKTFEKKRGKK

[9] = biological target: Tyrosine-protein kinase HCK (Homo sapiens) (UniProt P08631); details: Compound concentration 1000.0 nM
[10] = biological target: T3, Bone morphogenetic protein receptor type-2 (Homo sapiens) (UniProt Q13873); details: Compound concentration 1000.0 nM
T3 sequence (whole entry): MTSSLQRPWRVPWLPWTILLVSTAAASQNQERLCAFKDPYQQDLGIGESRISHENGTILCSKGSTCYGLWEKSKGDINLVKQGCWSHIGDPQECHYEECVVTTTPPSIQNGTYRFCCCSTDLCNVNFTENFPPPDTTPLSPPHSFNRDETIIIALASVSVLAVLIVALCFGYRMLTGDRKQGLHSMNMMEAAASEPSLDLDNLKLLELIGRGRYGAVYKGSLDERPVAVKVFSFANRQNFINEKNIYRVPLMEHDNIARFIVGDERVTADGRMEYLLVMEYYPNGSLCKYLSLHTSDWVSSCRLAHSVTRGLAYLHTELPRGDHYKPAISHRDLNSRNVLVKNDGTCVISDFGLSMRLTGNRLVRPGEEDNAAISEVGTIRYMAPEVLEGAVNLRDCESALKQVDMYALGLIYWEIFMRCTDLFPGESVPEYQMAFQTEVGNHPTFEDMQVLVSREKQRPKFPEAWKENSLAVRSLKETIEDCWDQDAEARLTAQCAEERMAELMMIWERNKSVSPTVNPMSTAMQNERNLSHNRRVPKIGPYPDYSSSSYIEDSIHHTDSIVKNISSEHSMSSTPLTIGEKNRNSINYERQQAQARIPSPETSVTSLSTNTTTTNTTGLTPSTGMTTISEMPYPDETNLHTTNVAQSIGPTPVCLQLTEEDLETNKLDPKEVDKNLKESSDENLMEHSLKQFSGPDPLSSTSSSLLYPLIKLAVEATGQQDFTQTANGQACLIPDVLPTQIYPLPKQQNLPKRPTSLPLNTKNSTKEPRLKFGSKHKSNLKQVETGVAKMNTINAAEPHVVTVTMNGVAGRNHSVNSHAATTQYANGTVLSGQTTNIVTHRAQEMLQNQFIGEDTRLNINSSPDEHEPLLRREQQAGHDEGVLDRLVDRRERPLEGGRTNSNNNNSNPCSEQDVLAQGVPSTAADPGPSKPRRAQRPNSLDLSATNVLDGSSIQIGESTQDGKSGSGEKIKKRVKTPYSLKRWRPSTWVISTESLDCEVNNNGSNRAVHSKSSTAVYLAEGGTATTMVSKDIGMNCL

[11] = biological target: Fibroblast growth factor receptor 2 (Homo sapiens) (UniProt P21802); details: Compound concentration 1000.0 nM
[12] = tested on: Tyrosine-protein kinase ABL1 (Homo sapiens), P00519 [E255K]; details: Compound concentration 1000.0 nM
Chain of Tyrosine-protein kinase ABL1 (Homo sapiens), P00519 [E255K] (P00519 whole entry E255K): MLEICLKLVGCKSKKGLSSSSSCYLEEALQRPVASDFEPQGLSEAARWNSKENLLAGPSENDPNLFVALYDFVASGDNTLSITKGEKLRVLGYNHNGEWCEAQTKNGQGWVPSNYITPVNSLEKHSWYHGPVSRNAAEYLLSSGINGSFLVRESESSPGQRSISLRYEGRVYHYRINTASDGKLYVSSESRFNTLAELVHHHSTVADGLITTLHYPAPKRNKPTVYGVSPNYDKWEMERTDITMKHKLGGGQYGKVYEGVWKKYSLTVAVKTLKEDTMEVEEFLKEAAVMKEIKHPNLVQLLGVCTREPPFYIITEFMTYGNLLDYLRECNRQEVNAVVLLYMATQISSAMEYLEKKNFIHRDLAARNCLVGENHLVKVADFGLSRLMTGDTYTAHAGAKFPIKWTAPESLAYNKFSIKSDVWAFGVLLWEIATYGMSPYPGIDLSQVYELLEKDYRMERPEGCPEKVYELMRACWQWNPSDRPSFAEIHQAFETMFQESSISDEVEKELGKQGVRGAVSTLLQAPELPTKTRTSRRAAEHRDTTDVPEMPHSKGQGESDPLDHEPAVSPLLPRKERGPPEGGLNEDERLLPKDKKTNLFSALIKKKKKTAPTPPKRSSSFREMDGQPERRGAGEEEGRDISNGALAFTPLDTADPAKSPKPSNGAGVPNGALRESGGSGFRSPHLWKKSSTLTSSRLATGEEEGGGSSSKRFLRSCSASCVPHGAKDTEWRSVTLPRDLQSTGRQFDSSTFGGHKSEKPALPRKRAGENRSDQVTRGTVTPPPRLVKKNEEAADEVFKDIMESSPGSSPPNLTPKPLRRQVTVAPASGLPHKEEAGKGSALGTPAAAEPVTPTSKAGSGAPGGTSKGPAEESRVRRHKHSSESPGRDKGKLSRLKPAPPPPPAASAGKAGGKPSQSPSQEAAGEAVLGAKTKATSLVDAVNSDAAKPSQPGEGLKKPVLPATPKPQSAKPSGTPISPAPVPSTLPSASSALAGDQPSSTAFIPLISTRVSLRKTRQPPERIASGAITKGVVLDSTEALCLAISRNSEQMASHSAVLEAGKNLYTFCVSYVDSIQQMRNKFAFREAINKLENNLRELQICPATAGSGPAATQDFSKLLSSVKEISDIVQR

Chain of Tyrosine-protein kinase HCK (Homo sapiens) (P08631 2-526 limits assumed): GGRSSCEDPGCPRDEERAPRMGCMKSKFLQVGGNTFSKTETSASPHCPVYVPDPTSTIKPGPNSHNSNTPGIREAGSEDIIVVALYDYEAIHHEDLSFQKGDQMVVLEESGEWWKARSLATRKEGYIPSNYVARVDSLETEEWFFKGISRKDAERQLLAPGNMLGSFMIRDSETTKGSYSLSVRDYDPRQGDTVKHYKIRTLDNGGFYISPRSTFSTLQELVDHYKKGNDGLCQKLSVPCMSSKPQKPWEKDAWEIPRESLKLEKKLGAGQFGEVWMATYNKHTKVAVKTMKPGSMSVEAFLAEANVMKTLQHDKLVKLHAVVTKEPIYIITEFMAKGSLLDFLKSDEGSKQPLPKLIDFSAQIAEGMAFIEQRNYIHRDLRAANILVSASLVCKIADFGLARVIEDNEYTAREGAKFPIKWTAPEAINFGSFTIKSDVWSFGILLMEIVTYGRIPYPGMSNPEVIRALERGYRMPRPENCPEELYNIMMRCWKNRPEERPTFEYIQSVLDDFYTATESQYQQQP
Chain of Fibroblast growth factor receptor 2 (Homo sapiens) (P21802 22-821 limits assumed): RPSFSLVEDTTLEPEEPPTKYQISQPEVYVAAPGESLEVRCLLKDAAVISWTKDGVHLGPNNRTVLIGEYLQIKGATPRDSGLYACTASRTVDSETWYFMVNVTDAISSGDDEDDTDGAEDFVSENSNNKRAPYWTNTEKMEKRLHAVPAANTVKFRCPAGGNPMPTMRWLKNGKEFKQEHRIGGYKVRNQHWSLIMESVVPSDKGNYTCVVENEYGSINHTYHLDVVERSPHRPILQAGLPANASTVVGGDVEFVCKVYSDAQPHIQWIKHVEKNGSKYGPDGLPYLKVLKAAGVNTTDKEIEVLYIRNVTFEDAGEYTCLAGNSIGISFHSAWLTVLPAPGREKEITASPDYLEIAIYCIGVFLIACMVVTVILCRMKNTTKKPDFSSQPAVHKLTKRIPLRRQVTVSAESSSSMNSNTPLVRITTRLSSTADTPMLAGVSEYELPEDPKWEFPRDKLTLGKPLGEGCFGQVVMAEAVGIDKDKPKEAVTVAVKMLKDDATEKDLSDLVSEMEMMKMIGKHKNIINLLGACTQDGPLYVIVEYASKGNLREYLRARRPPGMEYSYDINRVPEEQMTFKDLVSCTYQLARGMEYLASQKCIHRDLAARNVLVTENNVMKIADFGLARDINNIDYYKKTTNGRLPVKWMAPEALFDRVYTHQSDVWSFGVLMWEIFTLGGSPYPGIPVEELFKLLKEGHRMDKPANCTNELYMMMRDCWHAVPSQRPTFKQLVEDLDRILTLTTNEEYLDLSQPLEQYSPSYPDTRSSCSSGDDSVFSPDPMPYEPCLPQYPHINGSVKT
Chain of Bone morphogenetic protein receptor type-1B (Homo sapiens) (O00238 whole entry): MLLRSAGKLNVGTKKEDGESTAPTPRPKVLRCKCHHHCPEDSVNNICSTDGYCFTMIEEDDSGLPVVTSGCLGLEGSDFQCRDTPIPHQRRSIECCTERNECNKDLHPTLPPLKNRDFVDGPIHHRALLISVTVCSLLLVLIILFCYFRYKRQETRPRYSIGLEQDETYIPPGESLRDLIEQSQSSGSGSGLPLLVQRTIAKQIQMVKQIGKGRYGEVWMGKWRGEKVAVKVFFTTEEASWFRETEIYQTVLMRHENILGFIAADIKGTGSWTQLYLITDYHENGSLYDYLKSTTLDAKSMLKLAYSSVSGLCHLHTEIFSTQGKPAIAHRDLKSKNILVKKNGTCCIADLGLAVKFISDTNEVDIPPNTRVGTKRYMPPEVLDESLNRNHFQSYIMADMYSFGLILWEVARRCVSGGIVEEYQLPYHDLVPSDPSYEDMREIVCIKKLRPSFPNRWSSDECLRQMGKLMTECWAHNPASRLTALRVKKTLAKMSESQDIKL
Chain of Tyrosine-protein kinase JAK2 (Homo sapiens) (O60674 whole entry): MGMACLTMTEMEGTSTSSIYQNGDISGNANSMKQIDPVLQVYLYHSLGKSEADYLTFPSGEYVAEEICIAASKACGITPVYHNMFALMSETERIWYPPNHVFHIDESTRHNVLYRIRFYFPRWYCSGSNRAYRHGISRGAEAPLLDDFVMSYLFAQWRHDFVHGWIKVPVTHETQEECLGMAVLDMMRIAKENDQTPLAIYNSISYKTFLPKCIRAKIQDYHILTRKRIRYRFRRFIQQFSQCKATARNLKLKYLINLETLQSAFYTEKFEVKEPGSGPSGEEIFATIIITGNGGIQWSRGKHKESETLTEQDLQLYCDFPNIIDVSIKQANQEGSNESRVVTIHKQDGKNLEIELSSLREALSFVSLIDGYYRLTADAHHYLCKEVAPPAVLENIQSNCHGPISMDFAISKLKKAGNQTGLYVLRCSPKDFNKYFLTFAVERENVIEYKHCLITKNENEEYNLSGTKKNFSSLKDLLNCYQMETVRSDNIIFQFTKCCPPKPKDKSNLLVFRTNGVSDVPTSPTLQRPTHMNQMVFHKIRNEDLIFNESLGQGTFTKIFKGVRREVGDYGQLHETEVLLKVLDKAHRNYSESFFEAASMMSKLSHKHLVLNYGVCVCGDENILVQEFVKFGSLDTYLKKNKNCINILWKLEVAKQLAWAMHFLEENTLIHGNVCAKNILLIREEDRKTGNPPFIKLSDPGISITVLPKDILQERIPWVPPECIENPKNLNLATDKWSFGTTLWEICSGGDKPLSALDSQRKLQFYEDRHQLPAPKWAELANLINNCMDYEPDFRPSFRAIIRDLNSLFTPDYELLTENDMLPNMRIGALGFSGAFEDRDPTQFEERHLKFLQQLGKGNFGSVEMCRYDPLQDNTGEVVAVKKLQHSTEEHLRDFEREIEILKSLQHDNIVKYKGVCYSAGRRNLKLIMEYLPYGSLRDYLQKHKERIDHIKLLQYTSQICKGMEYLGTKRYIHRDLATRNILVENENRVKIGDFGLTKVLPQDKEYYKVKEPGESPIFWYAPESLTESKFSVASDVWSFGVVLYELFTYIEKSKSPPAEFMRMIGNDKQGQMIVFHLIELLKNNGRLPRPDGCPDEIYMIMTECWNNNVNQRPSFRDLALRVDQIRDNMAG
Chain of Casein kinase I isoform gamma-2 (Homo sapiens) (P78368 whole entry, looked up, canonical isoform): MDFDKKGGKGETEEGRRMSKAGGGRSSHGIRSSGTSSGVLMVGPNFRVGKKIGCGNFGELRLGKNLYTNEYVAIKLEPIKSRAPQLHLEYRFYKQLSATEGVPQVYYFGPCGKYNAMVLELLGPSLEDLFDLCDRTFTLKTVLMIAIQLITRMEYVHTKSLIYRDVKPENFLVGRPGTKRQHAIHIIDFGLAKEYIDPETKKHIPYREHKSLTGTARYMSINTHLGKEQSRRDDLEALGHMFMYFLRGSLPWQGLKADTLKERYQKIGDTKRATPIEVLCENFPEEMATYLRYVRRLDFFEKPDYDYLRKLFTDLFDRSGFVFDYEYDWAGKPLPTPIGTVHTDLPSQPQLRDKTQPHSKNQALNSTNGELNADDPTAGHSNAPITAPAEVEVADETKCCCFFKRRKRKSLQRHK
Chain of Dual specificity mitogen-activated protein kinase kinase 1 (Homo sapiens) (Q02750 whole entry): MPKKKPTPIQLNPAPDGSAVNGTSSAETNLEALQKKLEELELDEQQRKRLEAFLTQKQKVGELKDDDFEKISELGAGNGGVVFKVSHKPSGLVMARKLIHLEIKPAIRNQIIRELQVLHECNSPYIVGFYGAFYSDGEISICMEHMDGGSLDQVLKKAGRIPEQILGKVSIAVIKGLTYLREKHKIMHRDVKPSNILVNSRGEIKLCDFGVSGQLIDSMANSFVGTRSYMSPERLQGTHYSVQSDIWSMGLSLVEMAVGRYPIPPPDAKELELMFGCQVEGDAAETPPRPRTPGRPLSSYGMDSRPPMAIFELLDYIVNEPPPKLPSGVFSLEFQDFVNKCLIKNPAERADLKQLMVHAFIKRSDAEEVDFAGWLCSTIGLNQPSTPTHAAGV

Cc1nc(C2CCN(C(=O)c3ccc(OC(F)(F)F)cc3N)CC2)c2ncc(N3CCN(C)CC3)cc2n1 [BAY-693]
inactive: residual activity [1] 93% | residual activity [2] 93% | residual activity [3] 82% | residual activity [4] 85% | residual activity [5] 99% | residual activity [6] 100% | inhibition [7] -1.64% | residual activity [8] 100% | residual activity [9] 95% | residual activity [10] 100% | residual activity [11] 100% | residual activity [12] 100%

CN1CCN(c2cnc3c(C4CCN(C(=O)c5ccc(OC(F)(F)F)cc5N)CC4)ncnc3c2)CC1 [BAY-885]
inactive: residual activity [1] 100% | residual activity [2] 100% | residual activity [3] 100% | residual activity [4] 95% | residual activity [5] 83% | residual activity [6] 100% | inhibition [7] 0.38% | residual activity [8] 100% | residual activity [9] 95% | residual activity [10] 100% | residual activity [11] 100% | residual activity [12] 98%
